The values below come from US20190328706A1, “COMPOSITIONS COMPRISING AN INTEGRIN INHIBITOR AND AGENTS WHICH INTERACT WITH A CHEMOKINE AND METHODS OF USE THEREOF” (Saint Louis University, priority 2016, published 2019).

One may read the IC50 as the concentration that gives 50% inhibition.

The test system of this experiment is human G2 acute lymphoblastic leukemia (ALL) cells. The experiment can be described thus: Flow cytometry cell-based assay: inhibition of soluble VCAM-1 binding to G2 ALL cells. The following applies: for IC50: inhibition of sVCAM-1 binding to human G2 ALL cells, read-out: sVCAM-1 IC50; for inhibition of sVCAM-1 binding compared with other inhibitors / inhibition of sVCAM-1 binding compared with Firategrast: flow cytometry; for inhibition of sVCAM-1 binding compared with other inhibitors: FIG. 6, 7, 10, 11; for inhibition of sVCAM-1 binding compared with Firategrast: FIG. 5, 8, 9, 12. How it is done:
(§1) Compounds were tested for their ability to inhibit the binding of soluble VCAM-1 to human G2 acute lymphoblastic leukemia (ALL) cells. Briefly, G2 ALL cells are pre-incubated with increasing concentrations (0.001 to 1000 nM) of compounds for 30 minutes. Soluble VCAM/Fc chimera protein (R&D systems) is then added to the mixture and the cells incubated for an additional 30 minutes. Afterwards, cells are washed and VCAM-1 is detected using PE-conjugated secondary mAbs. In each experiment, an aliquot of cells will be stained with isotype control mAbs to serve as a negative control. The percentage of VCAM-1 binding cells was then determined by flow cytometry.
as §1, with “(ALL) cells or 5TGMI myeloma” for “(ALL)”, “ALL or 5TGMI” for “ALL”
(In general: In flow cytometry, cells or beads pass a laser one at a time.)

SMILES strings stand for the structures. Read-outs that look alike come from different tables or passages of the source.

For `COc1cc(C(N)=O)cc(OC)c1-c1ccc(C[C@H](NC(=O)c2c(Cl)cc(C(=O)O)cc2Cl)C(=O)O)cc1` [Cmpd 21, 4-{[(1S)-2-[4-(4-carbamoyl-2,6-dimethoxyphenyl)phenyl]-1-carboxyethyl]carbamoyl}-3,5-dichlorobenzoic acid], where the note is “Table 12”, the IC50 was determined as 72 nM.
In the case of `COc1cc(CO)cc(OC)c1-c1ccc(C[C@H](NC(=O)c2c(Cl)cc(C(=O)O)cc2Cl)C(=O)O)cc1` [Cmpd 22, 4-{[(1S)-1-carboxy-2-{4-[4-(hydroxymethyl)-2,6-dimethoxyphenyl]phenyl}ethyl]carbamoyl}-3,5-dichlorobenzoic acid], the half-inhibitory concentration (IC50) (Table 12) was found to be 0.47 nM.
For the compound `CCOCc1cc(OC)c(-c2ccc(C[C@H](NC(=O)c3c(Cl)cc(C(=O)O)cc3Cl)C(=O)O)cc2)c(OC)c1` [Cmpd 23, 4-{[(1S)-1-carboxy-2-{4-[4-(ethoxymethyl)-2,6-dimethoxyphenyl]phenyl}ethyl]carbamoyl}-3,5-dichlorobenzoic acid], for the setting “Table 12”, the concentration for half-maximal inhibition (IC50) was 0.58 nM.
In the case of `COc1cc(C(=O)O)cc(OC)c1-c1ccc(C[C@H](NC(=O)c2c(Cl)cc(C(=O)O)cc2Cl)C(=O)O)cc1` [Cmpd 24, 4-{4-[(2S)-2-carboxy-2-[(4-carboxy-2,6-dichlorophenyl)formamido]ethyl]phenyl}-3,5-dimethoxybenzoic acid], the IC50 (Table 12) came out at 218 nM.
Same read-out and setting: with `COc1cc(C(C)(C)O)cc(OC)c1-c1ccc(C[C@H](NC(=O)c2c(Cl)cc(C(=O)O)cc2Cl)C(=O)O)cc1` [Cmpd 25, 4-{[(1S)-1-carboxy-2-{4-[4-(2-hydroxypropan-2-yl)-2,6-dimethoxyphenyl]phenyl}ethyl]carbamoyl}-3,5-dichlorobenzoic acid] the figure was 70 nM.
On the same count and under the same terms, with `COc1cc(CF)cc(OC)c1-c1ccc(C[C@H](NC(=O)c2c(Cl)cc(C(=O)O)cc2Cl)C(=O)O)cc1` [Cmpd 26, 4-{[(1S)-1-carboxy-2-{4-[4-(fluoromethyl)-2,6-dimethoxyphenyl]phenyl}ethyl]carbamoyl}-3,5-dichlorobenzoic acid] the figure was 1.57 nM; with `CCOCc1cc(OC)c(-c2ccc(C[C@H](NC(=O)[C@]3(C)CCCN3S(=O)(=O)c3cc(Cl)cc(Cl)c3)C(=O)O)cc2)c(OC)c1` [Cmpd 33, (S)-2-((S)-1-((3,5-dichlorophenyl)sulfonyl)-2-methylpyrrolidine-2-carboxamido)-3-(4′-(ethoxymethyl)-2′,6′-dimethoxy-[1,1′-biphenyl]-4-yl)propanoic acid], 2.47 nM.
The same measure, in the same setting: the result for `CCOCc1cc(OC)c(-c2ccc(C[C@H](NC(=O)[C@]3(C)CCCN3S(=O)(=O)c3ccccc3)C(=O)O)cc2)c(OC)c1` [Cmpd 34, (S)-3-(4′-(ethoxymethyl)-2′,6′-dimethoxy-[1,1′-biphenyl]-4-yl)-2-((S)-2-methyl-1-(phenylsulfonyl)pyrrolidine-2-carboxamido)propanoic acid] reads 11.7 nM.
For the compound `COc1cc(COC2COC2)cc(OC)c1-c1ccc(C[C@H](NC(=O)[C@@H]2CCCN2S(=O)(=O)c2cc(Cl)cc(Cl)c2)C(=O)O)cc1` [Compound 009], under “Table 10”, the half-maximal inhibitory concentration (IC50) turned out to be 4.47 nM.
For `COc1cccc(N2CCC[C@H]2C(=O)N[C@@H](Cc2ccc(-c3c(OC)cccc3OC)cc2)C(=O)O)c1` [Compound 822], for the setting “Table 10”, the 50% inhibitory concentration (IC50) is 69 nM.
On the same count and under the same terms, the result for `COc1cccc(OC)c1-c1ccc(C[C@H](NC(=O)C2(c3ccccn3)CCCC2)C(=O)O)cc1` [Compound 825] reads 48 nM.
For `COc1cc(C(N)=O)cc(OC)c1-c1ccc(C[C@H](NC(=O)c2c(Cl)cc(C(=O)O)cc2Cl)C(=O)O)cc1` [Compound 1219, 4-{[(1S)-2-[4-(4-carbamoyl-2,6-dimethoxyphenyl)phenyl]-1-carboxyethyl]carbamoyl}-3,5-dichlorobenzoic acid], the half-maximal inhibitory concentration (IC50) (Table 8) turned out to be 72 nM.
`COc1cc(CO)cc(OC)c1-c1ccc(C[C@H](NC(=O)c2c(Cl)cc(C(=O)O)cc2Cl)C(=O)O)cc1` [Compound 1220, 4-{[(1S)-1-carboxy-2-{4-[4-(hydroxymethyl)-2,6-dimethoxyphenyl]phenyl}ethyl]carbamoyl}-3,5-dichlorobenzoic acid]: the “inhibition of sVCAM-1 binding compared with other inhibitors” value is “more potent inhibitors than 823”. Further, where the note is “Table 8”, the concentration for half-maximal inhibition (IC50) is 0.47 nM.
The corresponding values for `CCOCc1cc(OC)c(-c2ccc(C[C@H](NC(=O)c3c(Cl)cc(C(=O)O)cc3Cl)C(=O)O)cc2)c(OC)c1` [Compound 1221, 4-{[(1S)-1-carboxy-2-{4-[4-(ethoxymethyl)-2,6-dimethoxyphenyl]phenyl}ethyl]carbamoyl}-3,5-dichlorobenzoic acid] are “more potent inhibitors than 823” and 0.58 nM.
With `COc1cc(C(=O)O)cc(OC)c1-c1ccc(C[C@H](NC(=O)c2c(Cl)cc(C(=O)O)cc2Cl)C(=O)O)cc1` [Compound 1222, 4-{4-[(2S)-2-carboxy-2-[(4-carboxy-2,6-dichlorophenyl)formamido]ethyl]phenyl}-3,5-dimethoxybenzoic acid], the half-inhibitory concentration (IC50) (Table 8) was 218 nM.
As for `COc1cc(C(C)(C)O)cc(OC)c1-c1ccc(C[C@H](NC(=O)c2c(Cl)cc(C(=O)O)cc2Cl)C(=O)O)cc1` [Compound 1223, 4-{[(1S)-1-carboxy-2-{4-[4-(2-hydroxypropan-2-yl)-2,6-dimethoxyphenyl]phenyl}ethyl]carbamoyl}-3,5-dichlorobenzoic acid], where the note is “Table 8”, the IC50 amounted to 70 nM.
For the compound `COc1cc(CF)cc(OC)c1-c1ccc(C[C@H](NC(=O)c2c(Cl)cc(C(=O)O)cc2Cl)C(=O)O)cc1` [Compound 1224, 4-{[(1S)-1-carboxy-2-{4-[4-(fluoromethyl)-2,6-dimethoxyphenyl]phenyl}ethyl]carbamoyl}-3,5-dichlorobenzoic acid], the “inhibition of sVCAM-1 binding compared with other inhibitors” value is given as “more potent inhibitors than 823”. Further, under “Table 8”, the IC50 came out at 1.57 nM.
Take `COCCOCc1cc(OC)c(-c2ccc(C[C@H](NC(=O)c3c(Cl)cc(C(=O)O)cc3Cl)C(=O)O)cc2)c(OC)c1` [Compound 1554, (S)-4-((1-carboxy-2-(2′,6′-dimethoxy-4′-((2-methoxyethoxy)methyl)-[1,1′-biphenyl]-4-yl)ethyl)carbamoyl)-3,5-dichlorobenzoic acid]: the “inhibition of sVCAM-1 binding compared with Firategrast” value (from here on “inhibition … compared with Firategrast”) is given as “greater inhibition of sVCAM-1 binding than did Firategrast”. For the same compound, where the note is “Table 8”, the IC50 came out at 1.47 nM.
The corresponding values for `CCCCCCOCc1cc(OC)c(-c2ccc(C[C@H](NC(=O)c3c(Cl)cc(C(=O)O)cc3Cl)C(=O)O)cc2)c(OC)c1` [Compound 1555, (S)-4-((1-carboxy-2-(4′-((hexyloxy)methyl)-2′,6′-dimethoxy-[1,1′-biphenyl]-4-yl)ethyl)carbamoyl)-3,5-dichlorobenzoic acid] are “greater inhibition of sVCAM-1 binding than did Firategrast” and 12.9 nM.
The matching figures for `COCCOCCOCCOCc1cc(OC)c(-c2ccc(C[C@H](NC(=O)c3c(Cl)cc(C(=O)O)cc3Cl)C(=O)O)cc2)c(OC)c1` [Compound 1570, (S)-4-((2-(4′-(2,5,8,11-tetraoxadodecyl)-2′,6′-dimethoxy-[1,1′-biphenyl]-4-yl)-1-carboxyethyl)carbamoyl)-3,5-dichlorobenzoic acid]: “greater inhibition of sVCAM-1 binding than did Firategrast” and 2.97 nM.
The corresponding values for `CCCCCC(=O)OCc1cc(OC)c(-c2ccc(C[C@H](NC(=O)c3c(Cl)cc(C(=O)O)cc3Cl)C(=O)O)cc2)c(OC)c1` [Compound 1571, (S)-4-((1-carboxy-2-(4′-((hexanoyloxy)methyl)-2′,6′-dimethoxy-[1,1′-biphenyl]-4-yl)ethyl)carbamoyl)-3,5-dichlorobenzoic acid] are “greater inhibition of sVCAM-1 binding than did Firategrast” and 4.43 nM.
As for `CCOCc1cc(OC)c(-c2ccc(C[C@H](NC(=O)[C@]3(C)CCCN3S(=O)(=O)c3cc(Cl)cc(Cl)c3)C(=O)O)cc2)c(OC)c1` [Compound 1608, (S)-2-((S)-1-((3,5-dichlorophenyl)sulfonyl)-2-methylpyrrolidine-2-carboxamido)-3-(4′-(ethoxymethyl)-2′,6′-dimethoxy-[1,1′-biphenyl]-4-yl)propanoic acid], the “inhibition … compared with Firategrast” value was “significantly more potent than Firategrast”. Under “Table 8”, the concentration for half-maximal inhibition (IC50) is 2.47 nM.
On to `CCOCc1cc(OC)c(-c2ccc(C[C@H](NC(=O)[C@]3(C)CCCN3S(=O)(=O)c3ccccc3)C(=O)O)cc2)c(OC)c1` [Compound 1609, (S)-3-(4′-(ethoxymethyl)-2′,6′-dimethoxy-[1,1′-biphenyl]-4-yl)-2-((S)-2-methyl-1-(phenylsulfonyl)pyrrolidine-2-carboxamido)propanoic acid], for which the “inhibition … compared with Firategrast” value is reported as “significantly more potent than Firategrast”. Moreover, the IC50 (Table 8) is 11.7 nM.
As to `COc1cccc(OC)c1-c1ccc(C[C@H](NC(=O)c2c(Cl)cccc2Cl)C(=O)O)cc1C(C)O` (stereo partly shown) [Compound 1632], the “inhibition … compared with Firategrast” value was “significantly more potent than Firategrast”. For the same compound, the IC50 (Table 10) was 10 nM.
